The target of experiment [1] is T1, GluG R encoded by clone 45-A (Rattus norvegicus, UniProt P23385).
T1 construct: expressed in transfected cells; host or cells: Xenopus oocytes injected with RNA transcribed in vitro from clone 45-A
The experiment in a line: Voltage clamp assay of inhibition of glutamic acid-evoked current in injected oocytes. It counts as cell-based. The following applies: 1 mM DL-AP3; 10 μM glutamic acid; read-out: current evoked by 10 μM glutamic acid, % of the control. As to the method: Voltage clamp assays were also carried out on injected oocytes to measure the inhibition by the putative glutamate G protein coupled receptor antagonist, 2-amino-3-phosphonopropionic acid (AP3).

The target of experiment [2] is T1, GluG R encoded by clone 45-A. It is filed as cell-based.
Experiment [3] concerns GluG R. The experiment in a line: Voltage-clamp recording of oocytes injected with RNA from positive pools of the cerebellum library. It counts as cell-based, rat. The following applies: oocyte injected with RNA from subfractionated pool of 14,000 colonies, approximately 100 ng RNA. As to the method:
Plasmid DNA prepared from each of the 10 pools of 100,000 clones, which in total represented one sublibrary of one million clones of the cerebellum cDNA library, was purified by cesium chloride gradient ultracentrifugation. The DNA was transcribed in vitro with T7 RNA polymerase (Pharmacia) in the presence of capped nucleotide (GpppG, Pharamcia). […] The transcription reaction tubes were set up by adding 12 μl of 5× transcription buffer (Stratagene Cloning Systems, La Jolla, Calif.), 3 μl each of 10 mM ATP, CTP, GTP, and UTP, 6 μl of 10 mM GpppG (Pharmacia), 6 μl of 1 mg/ml BSA, 3 μl of 200 mM DTT, 1.5 μl of 40 U/μl RNasin (ProMega Biotech, Madison, Wis.), 8.5 μl of water, 10 μl of cDNA containing 5 to 10 μg DNA, and 1 μl of 70 U/μl T7 RNA polymerase. […] Forty microliters of water was added to the radiolabeled reactions, and 1 μl was removed from each sample and counted to determine total counts. […] The samples were centrifuged to collect the RNA and the RNA pellets were counted to determine the counts incorporated into RNA. […]
The RNA from each of the 10 sublibraries were injected into oocytes as described above and translation was allowed for four days. Expression of GluG R activity was assessed by voltage-clamp assay as described above. […]

For experiment [4], the system named is rat G protein coupled glutamate receptor. Kind of experiment: Competition of quisqualate with tritiated glutamic acid on membranes of transfected BHK cells. The following applies: membranes of BHK 570 and BHK TK^- ts13 clones. It counts as binding. As to the method:
Transfected cell lines expressing GluG R were identified by the binding of ^3 H-glutamate to membrane preparations from transfected cells. Cell lines expressing low to moderate levels of GluG R are used to set up functional screening assays.
Clones of BHK 570 and BHK TK^- ts13 cells expressing the rat G protein coupled glutamate receptor cDNA were plated in two or three 150 mm maxi-plates culture dishes and were grown to confluency. The cells from each plate were scraped in 5 ml of PBS (phosphate buffered saline, Sigma Chemical Co., St. Louis, Mo.), which was pre-chilled to 4° C. The cells were removed to a chilled centrifuged tube, and the plates were each rinsed with 5 ml of chilled PBS and pooled with the cells. The chilled tubes were spun at 1,000 rpm for two minutes, and the supernatant was discarded. The cells were frozen at either -70° C. or on dry ice. In some cases, the cells were left overnight at -70° C. […] The filters were dried in a microwave oven and counted in a […].
Protein determinations were carried out using a Coomassie Blue-based assay from Pierce Chemical Company (Rockford, Ill.) under conditions set forth by the manufacturer. One hundred microliters of undiluted cell homogenate or BSA standard was added to 2 ml of reagent and the optical density was measured at 595 nm. […]

Where [5] appears, read: 100 μM, saturating concentration.

Where two headings read alike, the source gives them in different places.

T1 sequence (P23385 19-1199): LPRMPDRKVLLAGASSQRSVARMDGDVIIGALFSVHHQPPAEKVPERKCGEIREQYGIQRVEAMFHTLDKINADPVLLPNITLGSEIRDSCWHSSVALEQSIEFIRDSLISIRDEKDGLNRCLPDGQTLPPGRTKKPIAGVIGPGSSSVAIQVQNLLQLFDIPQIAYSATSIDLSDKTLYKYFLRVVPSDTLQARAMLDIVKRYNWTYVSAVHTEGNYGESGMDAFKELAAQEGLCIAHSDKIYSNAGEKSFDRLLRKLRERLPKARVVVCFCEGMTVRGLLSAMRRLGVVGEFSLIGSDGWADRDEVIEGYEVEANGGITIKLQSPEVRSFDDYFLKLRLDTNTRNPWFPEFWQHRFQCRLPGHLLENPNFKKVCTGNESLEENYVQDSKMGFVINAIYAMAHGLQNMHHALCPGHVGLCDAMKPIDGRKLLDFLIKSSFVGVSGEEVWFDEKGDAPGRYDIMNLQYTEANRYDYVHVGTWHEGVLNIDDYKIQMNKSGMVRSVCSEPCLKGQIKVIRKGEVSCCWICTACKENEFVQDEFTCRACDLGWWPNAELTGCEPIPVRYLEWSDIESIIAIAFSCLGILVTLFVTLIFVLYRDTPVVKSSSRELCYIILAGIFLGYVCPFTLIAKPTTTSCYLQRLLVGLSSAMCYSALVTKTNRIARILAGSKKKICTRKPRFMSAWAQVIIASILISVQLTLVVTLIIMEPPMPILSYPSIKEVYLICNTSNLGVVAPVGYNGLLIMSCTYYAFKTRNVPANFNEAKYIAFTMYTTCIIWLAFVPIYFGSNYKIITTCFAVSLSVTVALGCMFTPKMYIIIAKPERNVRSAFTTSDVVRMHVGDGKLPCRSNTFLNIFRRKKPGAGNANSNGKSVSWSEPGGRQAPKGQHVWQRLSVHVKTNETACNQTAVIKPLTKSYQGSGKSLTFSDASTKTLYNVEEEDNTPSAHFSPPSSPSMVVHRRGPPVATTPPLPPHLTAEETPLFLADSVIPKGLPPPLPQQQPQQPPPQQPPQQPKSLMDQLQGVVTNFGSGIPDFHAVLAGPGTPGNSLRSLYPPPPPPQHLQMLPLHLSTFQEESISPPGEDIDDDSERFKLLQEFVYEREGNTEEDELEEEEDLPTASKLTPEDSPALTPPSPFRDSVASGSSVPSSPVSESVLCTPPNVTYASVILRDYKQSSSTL

In the case of `NC(CP(=O)(O)O)C(=O)O` (racemic) [DL-AP3, 2-amino-3-phosphonopropionic acid], the remaining activity at 1000 µM in experiment [1] was 59.3 ± 7.3%.
Consider `Cc1onc(O)c1CC(N)C(=O)O` (stereo not drawn) [AMPA, α-amino-3-hydroxy-5-methyl-isoxazole-4-propionic acid], for which the “response relative to 100 μM L-glutamate” value in experiment [2] (setting [5]) is listed as “ineffective”.
For `NC(CCP(=O)(O)O)C(=O)O` (centres unmarked) [APB, 2-amino-4-phosphonobytyric acid], in experiment [2] (setting [5]), the “response relative to 100 μM L-glutamate” value is recorded as “ineffective”.
As for `CN[C@H](CC(=O)O)C(=O)O` [NMDA, N-methyl-D-aspartic acid], in experiment [2] (100 μM NMDA+10 μM glycine), the “response relative to 100 μM L-glutamate” value was “ineffective”.
For `N[C@@H](Cn1oc(=O)[nH]c1=O)C(=O)O` [Quisqualic acid, quisqualic acid], the “actual peak current in response to quisqualate (estimated from a digital panel meter)” value in experiment [3] was “approximately 1300 nA”. Besides, the “competitive binding to the glutamate receptor expressed by transfected BHK cells” value in experiment [4] is “able to competitively bind”.
Turning to `N[C@@H](CC(=O)O)C(=O)O` [aspartic acid], the “response relative to 100 μM L-glutamate” value in experiment [2] (1 mM, saturating concentration) was “ineffective”.
For `C=C(C)[C@H]1CN[C@H](C(=O)O)[C@H]1CC(=O)O` [kainic acid], in experiment [2] (1 mM, saturating concentration), the “response relative to 100 μM L-glutamate” value is “ineffective”.

(Values after patent US5869609A, “G protein coupled glutamate receptors” (priority 1995, dated 1999).)
